Earlier results, collected in patent publication US20040120985A1, “Food product for increasing the cognitive functional capacity” (priority 2001, published 2004).

Experiments:
aging brain = conditions: animal experimental studies
[1] = oral administration
[2] = tested on: cognitive functional capacity; conditions: individuals older than 40 years, 100 mg to 300 mg per day

bioavailability [1]: good | passage of the blood-brain barrier ([1]; after passing through the liver): crosses the blood-brain barrier
Substance: phosphatidyl serine
ATPase-dependent ion transport via the cell membrane (aging brain): improves the ATPase-dependent ion transport via the cell membrane | age-related breakdown of the receptors for the nerve growth factor (aging brain): partially prevents the age-related breakdown of the receptors for the nerve growth factor | cholesterol/phospholipid ratio in the aging brain (aging brain): normalizes the cholesterol/phospholipid ratio in the aging brain | neuron atrophy (aging brain): protects against neuron atrophy | protein kinase C balance (aging brain): normalizes the protein kinase C balance | formation of nerve growth factors (aging brain; effect not identified for other phospholipids): promotes the formation of nerve growth factors | cognitive functional capacity [2]: increased
